Test system: Leishmania donovani
Experiment: Antileishmanial activity against Leishmania donovani promastigotes by alamar blue dye based fluorescence assay
Type: functional, organism-based

SMILES	IC50 [µM]	IC90 [µM]
C[C@@H]1C[C@H](OC(=O)c2cc(O)ccc2O)[C@H](O)[C@H](O)[C@@H]1O	100	> 134
N=C(N)c1ccc(OCCCCCOc2ccc(C(=N)N)cc2)cc1 [PENTAMIDINE]	9	17
C[C@@H]1C[C@H](O)[C@H](O)[C@H](O)[C@@H]1OCc1cc(O)ccc1O	57	119
C[C@@H]1[C@H](O)[C@@H](C)/C=C/C=C/C=C/C=C/C=C/C=C/C=C/[C@H](O[C@@H]2O[C@H](C)[C@@H](O)[C@H](N)[C@@H]2O)C[C@@H]2O[C@](O)(C[C@@H](O)C[C@@H](O)[C@H](O)CC[C@@H](O)C[C@@H](O)CC(=O)O[C@H]1C)C[C@H](O)[C@H]2C(=O)O [AMPHOTERICIN B]		0.4
